One test has as its target Human ACLY (Homo sapiens (Human), UniProt P53396). The test is described as follows: ACLY enzyme activity test (ADP-Glo luminescence). The note with it: 37° C., 30 minutes. Format: biochemical. An excerpt:
• Instrument: Envision (PerkinElmer, USA) • Materials: Acl—human ACLY/acly/ATP citrate lyase protein (His tag) was purchased from Sino Biological; kinase assay kit ADP-GLO (promega #V9102).
Experimental principle: In this experiment, the ATP-dependent citrate lyase ACL catalyzes the conversion of citrate to acetyl coenzyme A, which in turn produces malonyl coenzyme A, a precursor molecule for fatty acid synthesis, and this reaction is accompanied by ATP depletion, so the change in ATP can be detected using the ADP-Glo Kinase Assay (#V9102) to indirectly reflect the inhibitory effect of the compound on the enzymatic activity of ACL. This kinase detection kit can quantitatively determine the amount of ADP catalyzed by ACLY enzyme activity. (First, the compound, the enzyme and the substrate are incubated at 37 degrees for half an hour, ADP-Glo& #V9102; reagent is added and incubated for half an hour to terminate the reaction and consume the remaining ATP; then the kinase detection reagent is added (which converts the ADP to ATP while also detecting the newly synthesized ATP using the coupled […] reaction) and incubated for half an hour. The value is read by using Envision.
Experimental method: ADP Glo luminescence method was used for determination. It reflects the activity of ACLY enzyme by quantitatively detecting the amount of ADP, and the enzymatic reaction catalyzed by ACLY is proportional to the amount of ADP detected by the luminescent signal. Firstly, the compound is diluted with 10% DMSO, and then […] of compound dilution is added to a 5 μl reaction system, so that the final reaction system has a DMSO content of 2%. The enzymatic reaction catalyzed by ACLY was carried out at 37° C. for 30 minutes. 5 μl reaction mixture contained the following components: 40 mM Tris, pH 8.0, 10 mM MgCl2, 5 mM DTT, ATP, CoA, sodium citrate, and ACLY. After the enzymatic reaction was complete, 2.5 μl of ADP Glo reagent was added to each reaction system and incubated at room temperature for 1 hour. Afterwards, 5 μl of kinase detection reagent was added and incubated at room temperature for 30 minutes. The luminous signal was detected using Envision (PerkinElmer, USA).
Data processing: For compound, the activity dose dependent relationship was tested. IC50 value was obtained by non-linear fitting of sample concentration based on sample activity. The software used for calculation was Graphpad Prism 7, and the model used for fitting was sigmoid dose response (variable slope). For most inhibitor screening models, the bottom and top of the fitting curve were set to 0 and 100. In general, each sample is set with multiple wells (n≥2) during testing, which are represented in the results as Standard Deviation (SD) or Standard Error (SE).

The test system of test [1] is pancreatic cancer cell line ASPC-1. The test is described as follows: MTS cell proliferation assay, ASPC-1. Format: cell-based. The note with it: Homo sapiens, ASPC1; ASPC-1, MTS; read-out: IC50, inhibition of proliferation, ASPC-1. The source says:
(§1) Experimental principle: CellTier 96 ® AQueous One Solution Cell Proliferation Assay (MTS) colorimetric method was used to detect cell proliferation. This analysis method is based on the tetrazole compound (3-(4,5-dimethylthiazol-2-yl)-5-(3-carboxymethoxyphenyl)-2-(4-sulfophenyl)-2H-tetrazolium, internal salt; MTS). The conversion of yellow MTS to blue purple water-soluble formazan is catalyzed by dehydrogenase, which exists in living cells with metabolic activity; Dead cells cannot complete the transformation from MTS to formamide. The amount of formazan determined by absorbance at 490 nm is directly proportional to the number of live cells in culture.
(§2) Sample processing: Dissolve the sample in DMSO and store it at low temperature.
(§3) Cell survival rate was detected by using MTS method, that is, adherent cells growing in logarithmic phase were digested with 0.025% trypsin, and counted; 80 μl cells were inoculated into a 96 well plate at a density of 3000 cells/well for A549 and 5000 cells/well for H358 (all cultured under 1% FBS conditions), and grown overnight in a 5% CO2 and 37° C. incubator. Each compound was diluted with a three-fold concentration gradient, eight concentrations were tested, and three wells were set for each concentration. 20 μl of the diluted compounds was added to the corresponding cell wells. Adherent cells A549 and H358 were cultured in a 5% CO2 and 37° C. incubator for 72 hours; 20 μl of MTS was added separately and incubated for 2 hours in a 5% CO2 and 37° C. incubator. Molecular Device VersaMax was used to test the light absorption value at 490 nm (L1), with a reference wavelength of 690 nm (L2). The (L1−L2) values were plotted against different concentrations of inhibitors and IC50 was obtained by fitting the formula.
(§4) The experimental results were fitted to the IC50 using Graphpad Prism 7. The model used for fitting was log(inhibitor) vs Response—variable slop, and the results of each assay were equipped with triple replicate wells to ensure the accuracy of the experiment. The results were expressed as Standard Deviation (SD) or Standard Error (SE).
(§5) Similarly, the antiproliferative assays of the compounds on pancreatic cancer cell line ASPC-1, human pancreatic cancer cell MIA-PACA and breast cancer cell MCF-7 were performed as above.
For orientation: Tetrazolium assays rely on reduction of a dye to a coloured formazan, in cell work by metabolically active cells.

The subject of the next test is NCI-H358 cells. The test is described as follows: MTS cell proliferation assay, H358. The following applies: Homo sapiens, NCI-H358, H358, 72 hours, 1% FBS, read-out: IC50, inhibition of proliferation, H358. Format: cell-based, human.
Excerpt: Experimental materials: NCI-H358 cells (H358, human non-small cell lung cancer cells) were purchased from the cell bank/stem cell bank of the Chinese Academy of Sciences; RPMI-1640 culture medium (GIBCO, product number 3180002), and human tumor cell non-small cell lung cancer cell A549 were gifted by the research group of researcher Li Jia from SHANGHAI INSTITUTE OF MATERIA MEDICA, CHINESE ACADEMY OF SCIENCES. CellTier 96® The Aquarius One Solution Cell Promotion Assay (MTS) was purchased from Promega #G3581.
as §1, §2, §3, §4

Test [2] concerns human pancreatic cancer cell MIA-PACA. The test is described as follows: MTS cell proliferation assay, MIA-PACA. The note with it: Homo sapiens, MIA PaCa-2, read-out: IC50, inhibition of proliferation, MIA-PACA. Format: cell-based.
Excerpt: as §1, §2, §3, §4, §5

A further test concerns breast cancer cell MCF-7. The test is described as follows: MTS cell proliferation assay, MCF-7. Format: cell-based. The note with it: Homo sapiens, MCF7; MCF-7, MTS; read-out: IC50, inhibition of proliferation, MCF-7.
Excerpt: as §1, §2, §3, §4, §5

Molecules are shown by their SMILES.

Human ACLY, sequence (P53396 whole entry): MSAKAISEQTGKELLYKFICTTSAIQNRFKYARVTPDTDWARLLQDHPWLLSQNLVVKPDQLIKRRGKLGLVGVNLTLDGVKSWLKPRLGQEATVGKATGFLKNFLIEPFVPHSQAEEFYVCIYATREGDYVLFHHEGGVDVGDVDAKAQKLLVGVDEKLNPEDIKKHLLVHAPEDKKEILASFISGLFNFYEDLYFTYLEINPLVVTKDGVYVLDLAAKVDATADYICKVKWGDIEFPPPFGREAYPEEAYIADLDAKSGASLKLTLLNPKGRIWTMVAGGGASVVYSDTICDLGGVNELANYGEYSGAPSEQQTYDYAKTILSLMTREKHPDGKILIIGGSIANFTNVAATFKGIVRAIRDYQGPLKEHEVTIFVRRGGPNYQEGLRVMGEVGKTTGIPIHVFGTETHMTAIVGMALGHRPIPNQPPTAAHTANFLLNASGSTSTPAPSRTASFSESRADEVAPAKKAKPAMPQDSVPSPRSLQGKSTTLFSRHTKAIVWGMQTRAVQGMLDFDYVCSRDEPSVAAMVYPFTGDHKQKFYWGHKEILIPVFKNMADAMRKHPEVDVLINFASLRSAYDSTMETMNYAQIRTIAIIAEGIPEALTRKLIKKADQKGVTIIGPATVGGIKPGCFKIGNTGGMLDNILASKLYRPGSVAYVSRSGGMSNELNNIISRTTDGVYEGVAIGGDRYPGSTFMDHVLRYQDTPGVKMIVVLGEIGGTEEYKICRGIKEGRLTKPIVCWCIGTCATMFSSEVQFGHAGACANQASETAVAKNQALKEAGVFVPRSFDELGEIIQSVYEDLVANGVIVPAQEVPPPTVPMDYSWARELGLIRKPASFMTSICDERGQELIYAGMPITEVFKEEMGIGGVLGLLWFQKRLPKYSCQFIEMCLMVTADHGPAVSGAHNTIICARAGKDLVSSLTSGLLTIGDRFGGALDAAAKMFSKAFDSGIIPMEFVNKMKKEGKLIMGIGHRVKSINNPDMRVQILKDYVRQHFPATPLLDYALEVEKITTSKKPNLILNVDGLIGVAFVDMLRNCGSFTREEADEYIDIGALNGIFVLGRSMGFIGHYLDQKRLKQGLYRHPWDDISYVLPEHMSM

`COC(=O)C1(CCCCCC/C=C\CCCCCCC2(C(=O)O)C=CCC2)C=CCC1` (stereo not shown) [Compound M21] showed an IC50 at Human ACLY of 3.8 ± 0.83 µM.

For `O=C(O)C1(CCCCCC/C=C\CCCCCCC2(C(=O)OCCc3ccccc3F)C=CCC2)C=CCC1` (stereo not shown) [Compound M23], the IC50 on Human ACLY was determined as 3.3 ± 0.72 µM.

On to `O=C(O)C1(CCCCCC/C=C\CCCCCCC2(C(=O)OCc3ccc(Cl)cc3Cl)C=CCC2)C=CCC1` (stereo not shown) [Compound M24], for which, on Human ACLY, the IC50 is 5.5 ± 1.9 µM.

In the case of `O=C(O)C1(CCCCCC/C=C\CCCCCCC2(C(=O)OCCc3ccc(F)cc3)C=CCC2)C=CCC1` (stereo not shown) [Compound M25], the IC50 in test [1] stood at 29.2 ± 11.4 µM; in the test on NCI-H358 cells it was 5.6 ± 0.5 µM; on Human ACLY, 4 ± 0.86 µM; in test [2], 11.9 ± 2.7 µM; with breast cancer cell MCF-7 it was 5.7 ± 1.5 µM.

With `O=C(O)C1(CCCCCC/C=C\CCCCCCC2(C(=O)OCCc3ccccc3)C=CCC2)C=CCC1` (stereo not shown) [Compound M27], the IC50 at Human ACLY was 7.7 ± 0.39 µM.

Take `O=C(O)C1(CCCCCC/C=C\CCCCCCC2(C(=O)OCCCc3ccc(Cl)cc3Cl)C=CCC2)C=CCC1` (stereo not shown) [Compound M28]: on Human ACLY, the IC50 amounted to 17 ± 2.5 µM.

For the molecule `O=C(O)C1(CCCCCC/C=C\CCCCCCC2(C(=O)OCCc3ccc4ccccc4c3)C=CCC2)C=CCC1` (stereo not shown) [Compound M29], the IC50 amounted to 28 ± 10.1 µM in test [1]; 9 ± 1.9 µM with NCI-H358 cells; 5.8 ± 1.8 µM against Human ACLY; 12.8 ± 1.6 µM in test [2]; 6.5 ± 0.4 µM with breast cancer cell MCF-7.

As to `O=C(O)C1(CCCCCC/C=C\CCCCCCC2(C(=O)OCCc3ccc(Cl)cc3)C=CCC2)C=CCC1` (stereo not shown) [Compound M30], on Human ACLY, the IC50 worked out at 19.9 ± 7.8 µM.

For `O=C(O)C1(CCCCCC/C=C\CCCCCCC2(C(=O)OCCc3ccccc3Cl)C=CCC2)C=CCC1` (stereo not shown) [Compound M31], at Human ACLY, the IC50 came out at 8.5 ± 3.2 µM.

Consider `COc1ccc(CCOC(=O)C2(CCCCCC/C=C\CCCCCCC3(C(=O)O)C=CCC3)C=CCC2)cc1` (stereo not shown) [Compound M32], for which the IC50 on Human ACLY came out at 4.6 ± 1.3 µM.

Molecule `CC[C@H](C)n1cc(C)c2c(C(=O)NCc3c(C)cc(C)[nH]c3=O)cc(-c3ccc(N4CCN(C(=O)CCCSC(=O)C(C)(C)CCCCC/C=C\CCCCCC(C)(C)C(=O)O)CC4)nc3)cc21` [Compound M33] registered an IC50 at Human ACLY of 3.3 ± 0.45 µM.

On Human ACLY, `Cc1ncsc1-c1ccc([C@H](C)NC(=O)[C@@H]2C[C@@H](O)CN2C(=O)[C@@H](NC(=O)C(C)(C)CCCCCC/C=C\CCCCCCC(C)(C)C(=O)O)C(C)(C)C)cc1` [Compound M34] registered an IC50 of 10.2 ± 0.3 µM.

In the case of `O=C(O)C1(CCCCCCC(=C(CCCCCCC2(C(=O)O)C=CCC2)c2ccccc2)c2ccccc2)C=CCC1` (stereo not shown) [Compound M35], the IC50 against Human ACLY amounted to 0.9 ± 0.1 µM.

Molecule `CC(C)(CCCCCCC=C(CCCCCCC(C)(C)C(=O)O)c1ccc(C(=O)N2CCN(c3ccccn3)CC2)cc1)C(=O)O` [Compound M36] gave an IC50 at Human ACLY of 4.57 ± 0.41 µM.

On to `CC(C)(CCCCCC/C=C(/CCCCCCC(C)(C)C(=O)O)c1ccc(C(=O)N2CCN(c3ccccn3)CC2)cc1)C(=O)O` [Compound M37], for which, at Human ACLY, the IC50 is 5.21 ± 0.27 µM.

In the case of `COC(=O)c1cc(Cl)c(O)c(S(=O)(=O)Nc2cc(-c3ccccc3)c(F)cc2F)c1` [NDI-091143, reference compound], the IC50 in test [1] is 83.3 ± 34.7 µM; in the test with NCI-H358 cells, 50.2 ± 27.7 µM; on Human ACLY, 0.0021 ± 0.0004 µM; in test [2] it was 40.9 ± 14.3 µM; with breast cancer cell MCF-7, 84.8 ± 45.3 µM.

Source of the values: patent US20250011272A1, “LONG-CHAIN COMPOUND THAT ACTS ON ACLY, PREPARATION METHOD THEREFOR AND USE THEREOF” (SHANGHAIINSTITUTE OF MATERIA MEDICA, CHINESE ACADEMY OF …, priority 2021, published 2025).
